Activity calls are given as the source filed them. For most assays here, no stated cut-off is given here; in the data, actives have a measured EC50 and inactives only a lower limit.
Key:
[1] = growth suppression of beta-catenin-knockout colon cells, dose response, cell-based, HCT116, human colon tumor (AID 1045); type: functional;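 further: HCT116 colon tumor cells with beta catenin knocked out; cells exposed to compound for 60 hours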
[2] = inhibitors of SNCA 5'UTR-driven reporter translation, confirmation, H4 neuroglioma cells, luminescence (AID 1988); type: functional, cell-based
[3] = NIH-3T3 fibroblast cytotoxicity, dose response, cytotoxicity control, cell-based, fluorescence, Alamar Blue, secondary assay (AID 2327); type: functional;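 further: NIH-3T3 mouse fibroblasts cultured with fluconazole at 8 µg/mL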
Protein RecA = biological target: T1, Protein RecA (Mycobacterium tuberculosis, UniProt P9WHJ3); assay: Fluorescence Cell-Free Homogeneous Dose Retest to Identify Inhibitors of RecA-Intein Splicing Activity. [Related pubchem assays (depositor defined):AID2097, AID2223, AID489010, AID492950]; type: functional
T1 sequence (P9WHJ3 whole entry): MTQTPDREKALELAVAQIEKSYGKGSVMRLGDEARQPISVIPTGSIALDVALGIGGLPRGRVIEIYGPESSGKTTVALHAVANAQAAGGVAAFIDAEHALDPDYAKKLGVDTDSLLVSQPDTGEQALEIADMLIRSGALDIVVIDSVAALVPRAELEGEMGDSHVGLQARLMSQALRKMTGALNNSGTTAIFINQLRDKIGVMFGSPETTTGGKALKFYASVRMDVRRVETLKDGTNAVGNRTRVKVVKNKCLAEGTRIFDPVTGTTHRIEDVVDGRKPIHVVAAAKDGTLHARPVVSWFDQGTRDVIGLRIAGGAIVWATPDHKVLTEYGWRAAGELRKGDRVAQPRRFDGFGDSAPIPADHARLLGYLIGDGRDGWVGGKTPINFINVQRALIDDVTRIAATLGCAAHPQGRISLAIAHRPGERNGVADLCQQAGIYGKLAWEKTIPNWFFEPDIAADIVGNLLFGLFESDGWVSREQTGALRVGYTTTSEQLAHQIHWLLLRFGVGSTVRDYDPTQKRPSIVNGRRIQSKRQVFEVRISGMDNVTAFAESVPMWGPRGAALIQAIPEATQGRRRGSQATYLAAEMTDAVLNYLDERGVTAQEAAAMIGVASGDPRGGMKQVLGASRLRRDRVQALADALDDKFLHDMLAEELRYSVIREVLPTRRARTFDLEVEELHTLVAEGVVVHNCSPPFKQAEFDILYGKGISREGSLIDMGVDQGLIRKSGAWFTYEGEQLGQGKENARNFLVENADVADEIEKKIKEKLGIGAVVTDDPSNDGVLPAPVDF

INS1 = assay: beta cell apoptosis inhibitors, cytokine rescue, dose response, luminescence, retest (AID 449756); type: functional, cell-based; details: Rattus norvegicus;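 further: cell death triggered by IL-1 beta plus TNF-alpha plus IFN-gamma mixture; protective hits raise ATP signal compared with cytokine alone wells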
Streptococcus = assay: Group A Streptococcus viability loss, dose response, counter-screen for streptokinase expression inhibitor project, luminescence, BacTiterGlo (AID 1915); type: functional, organism-based;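 further: potency for reduction of bacterial viability or growth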
[4] = test system: Streptococcus sp. 'group A'; assay: growth inhibition of control SK(-) GAS strain, dose response, counter-screen for streptokinase expression inhibitor project, luminescence, kanamycin, BacTiterGlo, confirmation (AID 1900); type: functional, organism-based
Streptokinase A = biological target: T2, Streptokinase A (Streptococcus pyogenes serotype M1, UniProt P10520); assay: S. pyogenes streptokinase expression inhibitors, potency, dose response, plasminogen activation absorbance, OD405 (AID 1914); type: functional, Streptococcus pyogenes M1 GAS;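 further: secreted streptokinase activity via plasminogen activation per viability signal from cell pellet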
T2 sequence (P10520 whole entry): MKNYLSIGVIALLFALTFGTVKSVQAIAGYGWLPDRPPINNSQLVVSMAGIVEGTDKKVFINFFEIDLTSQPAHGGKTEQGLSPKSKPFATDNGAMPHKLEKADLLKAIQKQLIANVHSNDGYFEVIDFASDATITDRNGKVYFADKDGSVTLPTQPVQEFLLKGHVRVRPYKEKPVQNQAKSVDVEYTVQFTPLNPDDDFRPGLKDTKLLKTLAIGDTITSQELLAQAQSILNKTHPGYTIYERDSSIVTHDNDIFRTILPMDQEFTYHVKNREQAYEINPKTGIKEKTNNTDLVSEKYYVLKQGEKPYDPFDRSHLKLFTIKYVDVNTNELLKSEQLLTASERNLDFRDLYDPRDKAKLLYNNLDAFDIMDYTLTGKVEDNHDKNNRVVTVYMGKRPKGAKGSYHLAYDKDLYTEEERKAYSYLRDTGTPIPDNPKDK

[5] = Luminescence-based counterscreen assay for KLF5 inhibitors: dose response cell-based high throughput screening assay to identify cytotoxic compounds using the IEC-6 intestinal epithelial cell line. [Related pubchem assays: 1700 (Primary screen.), 1834 (Confirmation screen.), 1858 (Summary AID.), 1905 (Counterscreen.)]; type: functional
[6] = biological target: T3, Mannose-6-phosphate isomerase (Homo sapiens, UniProt P34949); assay: human PMI inhibitors, high substrate, primary screen, biochemical, fluorescence intensity, high mannose 6-phosphate (AID 1220)
T3 sequence (P34949 whole entry): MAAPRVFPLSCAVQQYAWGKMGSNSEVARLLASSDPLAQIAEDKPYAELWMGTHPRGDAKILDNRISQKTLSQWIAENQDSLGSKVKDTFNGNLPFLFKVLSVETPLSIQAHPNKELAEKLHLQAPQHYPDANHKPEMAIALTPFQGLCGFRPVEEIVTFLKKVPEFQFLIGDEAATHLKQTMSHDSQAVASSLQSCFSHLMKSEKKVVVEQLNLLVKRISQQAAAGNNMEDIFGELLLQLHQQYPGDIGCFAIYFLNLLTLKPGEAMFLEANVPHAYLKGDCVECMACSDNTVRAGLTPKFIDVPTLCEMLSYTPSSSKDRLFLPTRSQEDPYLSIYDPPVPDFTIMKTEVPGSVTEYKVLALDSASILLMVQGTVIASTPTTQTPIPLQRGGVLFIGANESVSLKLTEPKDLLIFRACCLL

[7] = Luminescence Cell-Based Dose Response HTS to Identify Inhibitors of 5'UTR Stem-Loop Driven Prion Protein mRNA Translation in H4 Neuroglioblastoma Cells. [Related pubchem assays: 1827 (Project Summary), 1813 (Primary HTS)]; type: functional
[8] = biological target: T4, Replicative DNA helicase DnaB (Mycobacterium tuberculosis, UniProt P9WMR3); assay: DnaB intein splicing inhibitors, dose response, biochemical, cell-free fluorescence (AID 449749); type: functional
T4 sequence (P9WMR3 whole entry): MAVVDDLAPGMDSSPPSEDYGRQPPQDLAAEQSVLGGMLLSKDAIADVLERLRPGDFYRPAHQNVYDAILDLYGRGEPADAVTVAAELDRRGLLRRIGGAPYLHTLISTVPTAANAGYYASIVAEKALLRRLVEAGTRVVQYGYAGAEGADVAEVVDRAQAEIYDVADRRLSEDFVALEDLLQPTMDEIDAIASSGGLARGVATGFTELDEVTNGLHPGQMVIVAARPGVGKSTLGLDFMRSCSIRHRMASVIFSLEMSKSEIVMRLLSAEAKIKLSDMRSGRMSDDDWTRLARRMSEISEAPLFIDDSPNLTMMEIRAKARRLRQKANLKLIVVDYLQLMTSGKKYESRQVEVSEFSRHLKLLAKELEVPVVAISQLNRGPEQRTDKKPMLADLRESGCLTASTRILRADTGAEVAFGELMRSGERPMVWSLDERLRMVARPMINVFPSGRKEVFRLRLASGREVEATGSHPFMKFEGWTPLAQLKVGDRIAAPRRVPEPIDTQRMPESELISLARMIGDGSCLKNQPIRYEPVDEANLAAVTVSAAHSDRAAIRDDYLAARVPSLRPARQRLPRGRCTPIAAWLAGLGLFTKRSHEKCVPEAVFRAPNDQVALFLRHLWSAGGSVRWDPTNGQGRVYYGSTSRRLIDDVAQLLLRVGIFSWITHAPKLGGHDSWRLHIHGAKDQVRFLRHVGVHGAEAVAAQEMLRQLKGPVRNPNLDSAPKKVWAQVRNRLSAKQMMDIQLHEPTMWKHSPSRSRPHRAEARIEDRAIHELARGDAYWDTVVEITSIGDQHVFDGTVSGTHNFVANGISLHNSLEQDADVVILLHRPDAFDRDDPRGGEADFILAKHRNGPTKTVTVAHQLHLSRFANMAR

BJ [9] = assay: cytotoxicity toward Ras-transformed BJeLR fibroblasts, dose response, cell-based, alamar blue fluorescence, cherrypicked samples (AID 2631); type: functional; details: Homo sapiens;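 further: confirmatory dose-response assay in RAS-dependent BJ fibroblasts engineered with TERT, LT and ST, with cytotoxicity read by fluorescence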
[10] = C. albicans growth with fluconazole, confirmation, fluorescence, retest (AID 2467); type: functional, cell-based
[11] = growth suppression of PTEN-null colon cells, dose response, cell-based, HCT116 PTEN knockout (AID 1047); type: functional;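 further: HCT116 colon tumor cells with PTEN knocked out; cells exposed to compound for 60 hours before readout; potency for loss of cell viability measured by luminescence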
BJ [12] = assay: cells; type: functional, cell-based; details: Homo sapiens
[13] = biological target: Luciferin 4-monooxygenase (Photinus pyralis, UniProt P08659); assay: firefly luciferase enzyme inhibitors, dose response, biochemical, luminescence (AID 1891)
Chain of Luciferin 4-monooxygenase (P08659 whole entry): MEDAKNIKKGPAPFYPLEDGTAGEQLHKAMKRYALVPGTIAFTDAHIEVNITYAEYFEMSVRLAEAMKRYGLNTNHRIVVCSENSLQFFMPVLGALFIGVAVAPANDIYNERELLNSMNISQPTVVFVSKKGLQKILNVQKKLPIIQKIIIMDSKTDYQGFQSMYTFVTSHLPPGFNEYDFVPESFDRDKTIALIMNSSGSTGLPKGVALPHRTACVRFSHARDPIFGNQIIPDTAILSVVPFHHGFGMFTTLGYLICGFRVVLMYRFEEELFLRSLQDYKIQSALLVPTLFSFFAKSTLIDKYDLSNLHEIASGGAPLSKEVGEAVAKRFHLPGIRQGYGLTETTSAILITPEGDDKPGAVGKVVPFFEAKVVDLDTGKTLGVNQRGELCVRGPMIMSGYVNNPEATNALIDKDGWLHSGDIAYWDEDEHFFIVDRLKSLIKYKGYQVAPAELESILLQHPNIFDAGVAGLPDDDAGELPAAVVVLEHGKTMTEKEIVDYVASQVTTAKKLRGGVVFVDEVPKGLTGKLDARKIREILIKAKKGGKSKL

BJ [14] = assay: cytotoxicity toward BJ-TERT fibroblasts, dose response, cell-based, RAS-independent, luminescence (AID 1933); type: functional; details: Homo sapiens
[15] = LGR2 antagonists, dose response, cell-based, HEK293, CRE-luciferase reporter, cherry pick, set 2 (AID 743343); type: functional;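 further: transfected cells were stimulated with diluted bursicon conditioned medium after compound addition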
[16] = A549 cell cytotoxicity, dose response, cytotoxicity control, plate reader, cherry-pick, antagonist series (AID 743412); type: functional, cell-based
[17] = HEK293 cell cytotoxicity, dose response, cytotoxicity control, plate reader, cherry-picked samples (AID 743446); type: functional, cell-based
[18] = Luminescence Cell-Based Dose Confirmation HTS to Identify Inhibitors of Platelet Dense Granule Release. [Related pubchem assays: 1663 (Primary HTS), 1678 (Summary of Project)]; type: functional
[19] = cytotoxicity toward DRD oncogenic fibroblasts, dose response, cell-based, non-viral oncogenic, luminescence (AID 1934); type: functional; details: Homo sapiens
BJ [20] = assay: cytotoxicity toward BJ-TERT-LT-ST fibroblasts, dose response, cell-based, RAS-independent, luminescence (AID 1935); type: functional; details: Homo sapiens;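 further: BJ fibroblasts immortalized with TERT plus LT and ST oncogenes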
[21] = inhibitors of firefly luciferase expression or activity, dose response, H4 neuroglioma cells, luminescence (AID 1990); type: functional, cell-based
[22] = MC4R antagonists, dose response, counter-screen for LGR2 antagonist project, cell-based, plate reader, cherry pick (AID 743444); type: functional;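 further: transfected HEK 293 cells stimulated with alpha-MSH peptide; potency of inhibitors of the alpha-MSH evoked signal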
[23] = HepG2 cell cytotoxicity, dose response, cytotoxicity control, plate reader, cherry-pick, antagonist series (AID 743416); type: functional, cell-based

Q: What does the source list for `C/N=C1\C(=O)c2ccccc2C(O)=C1N(C(C)=O)c1ccc(Br)cc1`?
A: EC50 [1]: 0.594 µM (active); EC50 [2]: 8.7 µM (active); EC50 [3]: 3.59 µM (inconclusive); EC50 (Protein RecA): 0.795 µM (active); AC50 (INS1): 0.548 µM (active); EC50 (Streptococcus): > 150 µM (not active); EC50 [4]: 6.44 µM (active); EC50 (Streptokinase A): 23.9 µM (active); IC50 [5]: 5.7 µM (active); IC50 [6]: > 50 µM (not active); EC50 [7]: 11.4 µM (active); AC50 [8]: 11.3 µM (active); EC50 (BJ [9]): 2.38 µM (active); EC50 [10]: 0.242 µM (active); EC50 [11]: 0.688 µM (active)

Q: For `CN(C)c1ccc(Nc2nc(N)c3ccccc3n2)cc1`, which EC50 (BJ [12]) is on record?
A: The EC50 was 12.6 µM (active).

Q: And the EC50 [13]?
A: Its EC50 is 1.37 µM (active).

Q: And the EC50 [2]?
A: The EC50 was 10.1 µM (inconclusive).

Q: What about the EC50 (BJ [14]) of the same molecule?
A: The EC50 was 10.6 µM (active).

Q: What about the AC50 [15] of the same molecule?
A: The AC50 was 1.57 µM (active).

Q: What about the AC50 [16] of the same molecule?
A: Its AC50 is 23.7 µM (active).

Q: And the AC50 [17]?
A: The AC50 was 24.5 µM (active).

Q: What about the EC50 [18] of the same molecule?
A: Its EC50 is 0.234 µM (active).

Q: And the IC50 [5]?
A: Its IC50 is 19.1 µM (not active).

Q: And the EC50 [19]?
A: The EC50 was 11.8 µM (active).

Q: What about the EC50 (BJ [20]) of the same molecule?
A: The EC50 was > 150 µM (inconclusive).

Q: What about the EC50 [21] of the same molecule?
A: The EC50 was > 60 µM (inconclusive).

Q: And the AC50 [22]?
A: Its AC50 is 1.89 µM (active).

Q: And the AC50 [23]?
A: The AC50 was 22.6 µM (active).

Reference: ChEMBL document CHEMBL1201862, “PubChem BioAssay data set” (2004)
